Measurements as given in patent US7022667B2, “O-derivatized nocathiacin derivatives” (Bristol-Myers Squibb Company, priority 2002, dated 2006).
≈ marks a conversion by molar mass, not a printed value.

How the values were obtained:
Assay in all cases: MIC, broth micro dilution assay (NCCLS)
Assay type in all cases: cell-based
[1] = tested on: Staphylococcus aureus A15090; details: Mueller-Hinton medium, 35° C., 18 hours
Protocol: (§1) The serial broth dilution method used Mueller-Hinton medium except for the Streptococcus pneumoniae which was tested in 50% Mueller-Hinton medium and 50% Todd Hewitt medium. The final bacterial inoculate contained approximately 5×10^5 cfu/well and was run on microtiter plates. The volume of each well was 100 μL and the plates were incubated at 35° C. for 18 hours in ambient air. The MIC was defined as the lowest drug concentration that prevented visible growth.

[2] = tested on: Streptococcus pneumoniae A28272; details: 50% Mueller-Hinton medium and 50% Todd Hewitt medium, 35° C., 18 hours
Protocol: as §1

[3] = tested on: Enterococcus faecalis A20688; details: Mueller-Hinton medium, 35° C., 18 hours
Protocol: as §1

| MIC (μg/mL) Staphylococcus aureus A15090 [1] | MIC (μg/mL) Streptococcus pneumoniae A28272 [2] | MIC (μg/mL) Enterococcus faecalis A20688 [3] | Structure (SMILES) |
| --- | --- | --- | --- |
| 16 µg/mL (≈ 9.65 µM) | 0.06 µg/mL (≈ 0.0362 µM) | >128 µg/mL | C=C(NC(=O)c1csc(-c2nc3c(cc2O)-c2nc(cs2)C(=O)NC(C(C)O)C(=O)NC(=C(C)OC)c2nc(cs2)C(=O)NC2c4nc(cs4)C(=O)NC(COC(=O)c4c5c6c(cccc6n4OCCCOC4OC(CO)C(O)C(O)C4O)COC(=O)C(OC4CC(C)(O)C(N(C)C)C(C)O4)C2OC5)c2nc-3cs2)n1)C(N)=O (stereo not drawn) [Example 58] |
| 16 µg/mL (≈ 10.6 µM) | 0.5 µg/mL (≈ 0.332 µM) | >128 µg/mL | COC(C)=C1NC(=O)C(C(C)O)NC(=O)c2csc(n2)-c2cc(O)c(-c3nc(C(N)=O)cs3)nc2-c2csc(n2)C2COC(=O)c3c4c5c(cccc5n3OCCCCS(=O)(=O)O)COC(=O)C(OC3CC(C)(O)C(N(C)C)C(C)O3)C(OC4)C(NC(=O)c3csc1n3)c1nc(cs1)C(=O)N2 (stereo not drawn) [Example 59] |
| 1.0 µg/mL | 0.06 µg/mL | 0.125 µg/mL | C=C(NC(=O)c1csc(-c2nc3c(cc2O)-c2nc(cs2)C(=O)NC(C(C)O)C(=O)NC(=C(C)OC)c2nc(cs2)C(=O)NC2c4nc(cs4)C(=O)NC(COC(=O)c4c5c6c(cccc6n4OS(=O)(=O)[O-])COC(=O)C(OC4CC(C)(O)C(N(C)C)C(C)O4)C2OC5)c2nc-3cs2)n1)C(N)=O.[Na+] (stereo not drawn) [Example 64] |
| 0.25 µg/mL (≈ 0.158 µM) | 0.03 µg/mL (≈ 0.019 µM) | 0.5 µg/mL (≈ 0.316 µM) | C=C(NC(=O)c1csc(-c2nc3c(cc2O)-c2nc(cs2)C(=O)NC(C(C)O)C(=O)NC(=C(C)OC)c2nc(cs2)C(=O)NC2c4nc(cs4)C(=O)NC(COC(=O)c4c5c6c(cccc6n4OP(=O)(O)OCCCl)COC(=O)C(OC4CC(C)(O)C(N(C)C)C(C)O4)C2OC5)c2nc-3cs2)n1)C(N)=O (stereo not drawn) [Example 65] |
| 2.0 µg/mL (≈ 1.24 µM) | 0.001 µg/mL (≈ 0.000618 µM) | 0.25 µg/mL (≈ 0.155 µM) | C=C(NC(=O)c1csc(-c2nc3c(cc2OCc2ccccc2)-c2nc(cs2)C(=O)NC(C(C)O)C(=O)NC(=C(C)OC)c2nc(cs2)C(=O)NC2c4nc(cs4)C(=O)NC(COC(=O)c4c5c6c(cccc6n4OCc4ccccc4)COC(=O)C(OC4CC(C)(O)C(N(C)C)C(C)O4)C2OC5)c2nc-3cs2)n1)C(N)=O (stereo not drawn) [Example 66] |
| >128 µg/mL | 0.5 µg/mL | 128 µg/mL | C=C(NC(=O)c1csc(-c2nc3c(cc2OCCCS(=O)(=O)[O-])-c2nc(cs2)C(=O)NC(C(C)O)C(=O)NC(=C(C)OC)c2nc(cs2)C(=O)NC2c4nc(cs4)C(=O)NC(COC(=O)c4c5c6c(cccc6n4OCCCS(=O)(=O)[O-])COC(=O)C(OC4CC(C)(O)C(N(C)C)C(C)O4)C2OC5)c2nc-3cs2)n1)C(N)=O.[Na+].[Na+] (stereo not drawn) [Example 67] |
| 8.0 µg/mL (≈ 4.8 µM) | 0.007 µg/mL (≈ 0.0042 µM) | 4.0 µg/mL (≈ 2.4 µM) | C=C(NC(=O)c1csc(-c2nc3c(cc2OCC(=O)OC(C)(C)C)-c2nc(cs2)C(=O)NC(C(C)O)C(=O)NC(=C(C)OC)c2nc(cs2)C(=O)NC2c4nc(cs4)C(=O)NC(COC(=O)c4c5c6c(cccc6n4OCC(=O)OC(C)(C)C)COC(=O)C(OC4CC(C)(O)C(N(C)C)C(C)O4)C2OC5)c2nc-3cs2)n1)C(N)=O (stereo not drawn) [Example 68] |
| 16 µg/mL (≈ 8.7 µM) | 0.25 µg/mL (≈ 0.136 µM) | 64 µg/mL (≈ 34.8 µM) | C=C(NC(=O)c1csc(-c2nc3c(cc2OCC(=O)NCCNC(=O)OC(C)(C)C)-c2nc(cs2)C(=O)NC(C(C)O)C(=O)NC(=C(C)OC)c2nc(cs2)C(=O)NC2c4nc(cs4)C(=O)NC(COC(=O)c4c5c6c(cccc6n4OCC(=O)NCCNC(=O)OC(C)(C)C)COC(=O)C(OC4CC(C)(O)C(N(C)C)C(C)O4)C2OC5)c2nc-3cs2)n1)C(N)=O (stereo not drawn) [Example 69] |
| 4.0 µg/mL (≈ 2.45 µM) | 0.06 µg/mL (≈ 0.0368 µM) | 0.5 µg/mL (≈ 0.307 µM) | C=C(NC(=O)c1csc(-c2nc3c(cc2OCC(=O)NCC#N)-c2nc(cs2)C(=O)NC(C(C)O)C(=O)NC(=C(C)OC)c2nc(cs2)C(=O)NC2c4nc(cs4)C(=O)NC(COC(=O)c4c5c6c(cccc6n4OCC(=O)NCC#N)COC(=O)C(OC4CC(C)(O)C(N(C)C)C(C)O4)C2OC5)c2nc-3cs2)n1)C(N)=O (stereo not drawn) [Example 70] |
| 8.0 µg/mL (≈ 4.98 µM) | 0.125 µg/mL (≈ 0.0777 µM) | 4.0 µg/mL (≈ 2.49 µM) | C=C(NC(=O)c1csc(-c2nc3c(cc2OCC(=O)N(C)C)-c2nc(cs2)C(=O)NC(C(C)O)C(=O)NC(=C(C)OC)c2nc(cs2)C(=O)NC2c4nc(cs4)C(=O)NC(COC(=O)c4c5c6c(cccc6n4OCC(=O)N(C)C)COC(=O)C(OC4CC(C)(O)C(N(C)C)C(C)O4)C2OC5)c2nc-3cs2)n1)C(N)=O (stereo not drawn) [Example 71] |
| 4.0 µg/mL (≈ 2.44 µM) | 0.06 µg/mL (≈ 0.0365 µM) | 4.0 µg/mL (≈ 2.44 µM) | C=C(NC(=O)c1csc(-c2nc3c(cc2OCC(=O)OCCO)-c2nc(cs2)C(=O)NC(C(C)O)C(=O)NC(=C(C)OC)c2nc(cs2)C(=O)NC2c4nc(cs4)C(=O)NC(COC(=O)c4c5c6c(cccc6n4OCC(=O)OCCO)COC(=O)C(OC4CC(C)(O)C(N(C)C)C(C)O4)C2OC5)c2nc-3cs2)n1)C(N)=O (stereo not drawn) [Example 72] |
| 2.0 µg/mL (≈ 1.06 µM) | 0.25 µg/mL (≈ 0.133 µM) | 2.0 µg/mL (≈ 1.06 µM) | C=C(NC(=O)c1csc(-c2nc3c(cc2OCOP(=O)(OC(C)(C)C)OC(C)(C)C)-c2nc(cs2)C(=O)NC(C(C)O)C(=O)NC(=C(C)OC)c2nc(cs2)C(=O)NC2c4nc(cs4)C(=O)NC(COC(=O)c4c5c6c(cccc6n4OCOP(=O)(OC(C)(C)C)OC(C)(C)C)COC(=O)C(OC4CC(C)(O)C(N(C)C)C(C)O4)C2OC5)c2nc-3cs2)n1)C(N)=O (stereo not drawn) [Example 73] |
| 0.06 µg/mL (≈ 0.0395 µM) | 0.0005 µg/mL (≈ 0.000329 µM) | 0.25 µg/mL (≈ 0.165 µM) | C=CCOc1cc2c(nc1-c1nc(C(=O)NC(=C)C(N)=O)cs1)-c1csc(n1)C1COC(=O)c3c4c5c(cccc5n3OCC=C)COC(=O)C(OC3CC(C)(O)C(N(C)C)C(C)O3)C(OC4)C(NC(=O)c3csc(n3)C(=C(C)OC)NC(=O)C(C(C)O)NC(=O)c3csc-2n3)c2nc(cs2)C(=O)N1 (stereo not drawn) [Example 74] |
| 0.03 µg/mL (≈ 0.0198 µM) | 0.0005 µg/mL (≈ 0.00033 µM) | 0.06 µg/mL (≈ 0.0396 µM) | C#CCOc1cc2c(nc1-c1nc(C(=O)NC(=C)C(N)=O)cs1)-c1csc(n1)C1COC(=O)c3c4c5c(cccc5n3OCC#C)COC(=O)C(OC3CC(C)(O)C(N(C)C)C(C)O3)C(OC4)C(NC(=O)c3csc(n3)C(=C(C)OC)NC(=O)C(C(C)O)NC(=O)c3csc-2n3)c2nc(cs2)C(=O)N1 (stereo not drawn) [Example 75] |
| 0.5 µg/mL (≈ 0.328 µM) | 0.03 µg/mL (≈ 0.0197 µM) | 1.0 µg/mL (≈ 0.655 µM) | C=C(NC(=O)c1csc(-c2nc3c(cc2OCCO)-c2nc(cs2)C(=O)NC(C(C)O)C(=O)NC(=C(C)OC)c2nc(cs2)C(=O)NC2c4nc(cs4)C(=O)NC(COC(=O)c4c5c6c(cccc6n4OCCO)COC(=O)C(OC4CC(C)(O)C(N(C)C)C(C)O4)C2OC5)c2nc-3cs2)n1)C(N)=O (stereo not drawn) [Example 77] |
| 64 µg/mL (≈ 39.4 µM) | 0.06 µg/mL (≈ 0.0369 µM) | 16 µg/mL (≈ 9.85 µM) | C=C(NC(=O)c1csc(-c2nc3c(cc2OCC(N)=O)-c2nc(cs2)C(=O)NC(C(C)O)C(=O)NC(=C(C)OC)c2nc(cs2)C(=O)NC2c4nc(cs4)C(=O)NC(COC(=O)c4c5c6c(cccc6n4OCOCC[Si](C)(C)C)COC(=O)C(OC4CC(C)(O)C(N(C)C)C(C)O4)C2OC5)c2nc-3cs2)n1)C(N)=O (stereo not drawn) [Example 78] |
| 1.0 µg/mL (≈ 0.603 µM) | 0.015 µg/mL (≈ 0.00905 µM) | 1.0 µg/mL (≈ 0.603 µM) | C=C(NC(=O)c1csc(-c2nc3c(cc2OCc2ccccc2)-c2nc(cs2)C(=O)NC(C(C)O)C(=O)NC(=C(C)OC)c2nc(cs2)C(=O)NC2c4nc(cs4)C(=O)NC(COC(=O)c4c5c6c(cccc6n4OCOCC[Si](C)(C)C)COC(=O)C(OC4CC(C)(O)C(N(C)C)C(C)O4)C2OC5)c2nc-3cs2)n1)C(N)=O (stereo not drawn) [Example 79] |

| Structure (SMILES) | MIC (μg/mL) Staphylococcus aureus A15090 [1] | MIC (μg/mL) Streptococcus pneumoniae A28272 [2] | MIC (μg/mL) Enterococcus faecalis A20688 [3] |
| --- | --- | --- | --- |
| C=C(NC(=O)c1csc(-c2nc3c(cc2O)-c2nc(cs2)C(=O)NC(C(C)O)C(=O)NC(=C(C)OC)c2nc(cs2)C(=O)NC2c4nc(cs4)C(=O)NC(COC(=O)c4c5c6c(cccc6n4OC(=O)NC)COC(=O)C(OC4CC(C)(O)C(N(C)C)C(C)O4)C2OC5)c2nc-3cs2)n1)C(N)=O (stereo not drawn) [Example 60] | 0.125 µg/mL (≈ 0.0836 µM) | 0.001 µg/mL (≈ 0.000669 µM) | 0.06 µg/mL (≈ 0.0401 µM) |
| C=C(NC(=O)c1csc(-c2nc3c(cc2O)-c2nc(cs2)C(=O)NC(C(C)O)C(=O)NC(=C(C)OC)c2nc(cs2)C(=O)NC2c4nc(cs4)C(=O)NC(COC(=O)c4c5c6c(cccc6n4OC(=O)N(C)CCO)COC(=O)C(OC4CC(C)(O)C(N(C)C)C(C)O4)C2OC5)c2nc-3cs2)n1)C(N)=O (stereo not drawn) [Example 61] | 0.03 µg/mL (≈ 0.0195 µM) | 0.0005 µg/mL (≈ 0.000325 µM) | 0.03 µg/mL (≈ 0.0195 µM) |
| C=C(NC(=O)c1csc(-c2nc3c(cc2O)-c2nc(cs2)C(=O)NC(C(C)O)C(=O)NC(=C(C)OC)c2nc(cs2)C(=O)NC2c4nc(cs4)C(=O)NC(COC(=O)c4c5c6c(cccc6n4OC(=O)NCCOCCOCCOCCOC)COC(=O)C(OC4CC(C)(O)C(N(C)C)C(C)O4)C2OC5)c2nc-3cs2)n1)C(N)=O (stereo not drawn) [Example 62] | 0.125 µg/mL (≈ 0.0748 µM) | 0.015 µg/mL (≈ 0.00898 µM) | 0.125 µg/mL (≈ 0.0748 µM) |
